Tests used:
[1] = target: T1, Serine protease 1 (Bos taurus, UniProt P00760); assay: In vitro inhibitory activity against bovine cationic trypsin
T1 sequence (P00760 whole entry): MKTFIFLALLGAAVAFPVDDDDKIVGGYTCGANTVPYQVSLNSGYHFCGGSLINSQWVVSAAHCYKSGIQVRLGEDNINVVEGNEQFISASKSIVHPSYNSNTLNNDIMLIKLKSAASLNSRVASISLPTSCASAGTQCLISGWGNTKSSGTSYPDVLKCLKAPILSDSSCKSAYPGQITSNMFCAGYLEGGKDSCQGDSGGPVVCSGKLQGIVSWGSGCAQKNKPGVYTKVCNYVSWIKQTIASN

[2] = target: Prothrombin (Homo sapiens, UniProt P00734)
Description: In vitro inhibitory activity against human coagulation factor II

[3] = target: Coagulation factor X (Homo sapiens, UniProt P00742); assay: In vitro inhibitory activity against human Coagulation factor X
[4] = organism: Homo sapiens; assay: Concentration required to double the prothrombin based clotting time in human plasma; format: functional

Coagulation factor X, sequence (P00742 41-179 limits assumed): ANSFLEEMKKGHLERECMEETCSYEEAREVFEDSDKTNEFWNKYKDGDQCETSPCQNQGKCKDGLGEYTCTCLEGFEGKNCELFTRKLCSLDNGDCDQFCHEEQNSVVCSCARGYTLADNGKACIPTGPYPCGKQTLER
Coagulation factor X, sequence (P00742 235-488 limits assumed): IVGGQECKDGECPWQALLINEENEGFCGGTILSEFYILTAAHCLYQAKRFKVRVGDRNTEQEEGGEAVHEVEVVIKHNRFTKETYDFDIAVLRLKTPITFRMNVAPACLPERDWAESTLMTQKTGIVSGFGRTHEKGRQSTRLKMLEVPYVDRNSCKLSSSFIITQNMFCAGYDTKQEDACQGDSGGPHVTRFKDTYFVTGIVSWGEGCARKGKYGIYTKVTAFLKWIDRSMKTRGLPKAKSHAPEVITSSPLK

| Ki [1] [nM] | Ki [2] [nM] | Ki [3] [nM] | SMILES | PT [4] [nM] |
| --- | --- | --- | --- | --- |
| 800 | 5000 | 370 | CC(=N)N1CCC(N(CCCC(=O)O)c2ccc3c(c2)nc(C)n3Cc2ccc3ccc(C(=N)N)cc3c2)CC1 | – |
| 11 | 98 | 0.3 | COC(=O)CN(c1ccc2nc(C)n(Cc3ccc4ccc(C(=N)N)cc4c3)c2c1)C1CCN(C(C)=N)CC1 | – |
| 47 | 650 | 3 | CC(=N)N1CCC(N(CC(C)C(=O)O)c2ccc3nc(C)n(Cc4ccc5ccc(C(=N)N)cc5c4)c3c2)CC1 (stereo unspecified) | – |
| 120 | 5000 | 80 | CC(=N)N1CCC(N(CC(C)C(=O)O)c2ccc3c(c2)nc(C)n3Cc2ccc3ccc(C(=N)N)cc3c2)CC1 (stereo unspecified) | – |
| 670 | 5000 | 420 | CC(=N)N1CCC(N(CCCC(=O)O)c2ccc3nc(C)n(Cc4ccc5ccc(C(=N)N)cc5c4)c3c2)CC1 | – |
| 7.6 | 2700 | – | COC(=O)CN(c1ccc2c(c1)nc(C)n2Cc1ccc2ccc(C(=N)N)cc2c1)C1CCN(C(C)=N)CC1 | – |
| 160 | 5000 | 80 | COC(=O)C(C)CN(c1ccc2c(c1)nc(C)n2Cc1ccc2ccc(C(=N)N)cc2c1)C1CCN(C(C)=N)CC1 (stereo unspecified) | – |
| 41 | 300 | 1.1 | COC(=O)C(C)CN(c1ccc2nc(C)n(Cc3ccc4ccc(C(=N)N)cc4c3)c2c1)C1CCN(C(C)=N)CC1 (stereo unspecified) | – |
| 260 | 4610 | 300 | COC(=O)CCCN(c1ccc2nc(C)n(Cc3ccc4ccc(C(=N)N)cc4c3)c2c1)C1CCN(C(C)=N)CC1 | – |
| 60 | 6000 | 30 | COC(=O)CCCN(c1ccc2c(c1)nc(C)n2Cc1ccc2ccc(C(=N)N)cc2c1)C1CCN(C(C)=N)CC1 | – |
| 28 | 490 | 0.46 | CC(=N)N1CCC(N(CC(N)=O)c2ccc3nc(C)n(Cc4ccc5ccc(C(=N)N)cc5c4)c3c2)CC1 | – |

The remaining lines, values behind:

| SMILES | Ki [1] [nM] | Ki [2] [nM] | Ki [3] [nM] | PT [4] [nM] |
| --- | --- | --- | --- | --- |
| CCOC(=O)CCC(=O)N(c1ccc2c(c1)nc(C)n2Cc1ccc2ccc(C(=N)N)cc2c1)C1CCN(C(C)=N)CC1 | 800 | 5000 | 370 | – |
| CC(=N)N1CCC(Oc2ccc3c(c2)ncn3Cc2ccc3ccc(C(=N)N)cc3c2)CC1 | 8.2 | > 5000 | 6.3 | – |
| CC(=N)N1CCC(Oc2ccc3c(c2)nc(CCC(N)=O)n3Cc2ccc3ccc(C(=N)N)cc3c2)CC1 | 10 | > 5000 | 3.6 | – |
| CC(=N)N1CCC(N(C(=O)CCC(=O)O)c2ccc3nc(C)n(Cc4ccc5ccc(C(=N)N)cc5c4)c3c2)CC1 | 670 | 5000 | 417 | – |
| CC(=N)N1CCC(Oc2ccc3nc(C)n(Cc4ccc5ccc(C(=N)N)cc5c4)c3c2)CC1 | – | 230 | – | 350 |
| CC(=N)N1CCC(Oc2ccc3c(c2)nc(C(C)(C)C)n3Cc2ccc3ccc(C(=N)N)cc3c2)CC1 | 18 | 950 | 2 | – |
| CC(=N)N1CCC(Oc2ccc3ncn(Cc4ccc5ccc(C(=N)N)cc5c4)c3c2)CC1 | 50 | 810 | 2.9 | 450 |
| CCCCc1nc2cc(OC3CCN(C(C)=N)CC3)ccc2n1Cc1ccc2ccc(C(=N)N)cc2c1 | 14 | 2000 | 2.8 | – |
| CC(=N)N1CCC(Oc2ccc3c(c2)nc(C(C)C)n3Cc2ccc3ccc(C(=N)N)cc3c2)CC1 | 16 | – | 2 | – |
| CCCc1nc2ccc(OC3CCN(C(C)=N)CC3)cc2n1Cc1ccc2ccc(C(=N)N)cc2c1 | 6.8 | 70 | 0.23 | 290 |
| CC(=N)N1CCC(Oc2ccc3nc(C(C)C)n(Cc4ccc5ccc(C(=N)N)cc5c4)c3c2)CC1 | 5.7 | 32 | 0.026 | 68 |
| CCCCc1nc2ccc(OC3CCN(C(C)=N)CC3)cc2n1Cc1ccc2ccc(C(=N)N)cc2c1 | 5.7 | 230 | 0.23 | 625 |
| CCc1nc2cc(OC3CCN(C(C)=N)CC3)ccc2n1Cc1ccc2ccc(C(=N)N)cc2c1 | 17 | 2100 | 4 | – |
| CCOC(=O)CCC(=O)N(c1ccc2nc(C)n(Cc3ccc4ccc(C(=N)N)cc4c3)c2c1)C1CCN(C(C)=N)CC1 | 256 | 4600 | 300 | – |
| CCC(C)c1nc2cc(OC3CCN(C(C)=N)CC3)ccc2n1Cc1ccc2ccc(C(=N)N)cc2c1 (stereo unspecified) | 13 | 2300 | 3.3 | – |
| CC(=N)N1CCC(Oc2ccc3nc(CCC(N)=O)n(Cc4ccc5ccc(C(=N)N)cc5c4)c3c2)CC1 | 4.4 | 590 | 1 | – |
| CCc1nc2ccc(OC3CCN(C(C)=N)CC3)cc2n1Cc1ccc2ccc(C(=N)N)cc2c1 | 7.7 | 60 | 0.087 | 130 |
| CC(=N)N1CCC(Oc2ccc3c(c2)nc(CCC(=O)O)n3Cc2ccc3ccc(C(=N)N)cc3c2)CC1 | 14 | > 5000 | 5.9 | – |
| CCCc1nc2cc(OC3CCN(C(C)=N)CC3)ccc2n1Cc1ccc2ccc(C(=N)N)cc2c1 | 16 | 2400 | 4.5 | – |
| CCC(C)c1nc2ccc(OC3CCN(C(C)=N)CC3)cc2n1Cc1ccc2ccc(C(=N)N)cc2c1 (stereo unspecified) | 10 | 160 | 0.12 | 280 |
| CC(=N)N1CCC(Oc2ccc3nc(CCC(=O)O)n(Cc4ccc5ccc(C(=N)N)cc5c4)c3c2)CC1 | 18 | 2670 | 1.3 | – |
| CC(=N)N1CCC(Oc2ccc3nc(C(C)(C)C)n(Cc4ccc5ccc(C(=N)N)cc5c4)c3c2)CC1 | 7 | 48 | 0.046 | 260 |
| CC(=N)N1CCC(Oc2ccc3c(c2)nc(C)n3Cc2ccc3ccc(C(=N)N)cc3c2)CC1 | 16 | 3900 | 6.2 | – |
